Measured values: PubChem BioAssay (NCI)
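Cells were grown in 96-well plates and exposed to each compound for 48 hours at five concentrations; endpoints were interpolated linearly between bracketing concentrations, or set to the highest concentration if not reached. The concentration for 50% growth inhibition is given as GI50. TGI: total growth inhibition.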

Columns and labels:
Test in all cases: NCI tumour cell line growth inhibition, 48 h
786-0 renal = system: 786-0 renal
A498 renal = system: A498 renal
A549 NSCLC = system: A549 NSCLC
ACHN renal = system: ACHN renal
BT-549 breast = system: BT-549 breast
CAKI-1 renal = system: CAKI-1 renal
CCRF-CEM leukemia = system: CCRF-CEM leukemia
COLO 205 colon = system: COLO 205 colon
DU-145 prostate = system: DU-145 prostate
EKVX NSCLC = system: EKVX NSCLC
HCC-2998 colon = system: HCC-2998 colon
HCT-116 colon = system: HCT-116 colon
HCT-15 colon = system: HCT-15 colon
HL-60(TB) leukemia = system: HL-60(TB) leukemia
HOP-62 NSCLC = system: HOP-62 NSCLC
HOP-92 NSCLC = system: HOP-92 NSCLC
HS 578T breast = system: HS 578T breast
HT29 colon = system: HT29 colon
IGROV1 ovarian = system: IGROV1 ovarian
K-562 leukemia = system: K-562 leukemia
KM12 colon = system: KM12 colon
LOX IMVI melanoma = system: LOX IMVI melanoma
M14 melanoma = system: M14 melanoma
MALME-3M melanoma = system: MALME-3M melanoma
MCF7 breast = system: MCF7 breast
MDA-MB-231 breast = system: MDA-MB-231 breast
MDA-MB-435 = system: MDA-MB-435
MDA-MB-468 breast = system: MDA-MB-468 breast
MOLT-4 leukemia = system: MOLT-4 leukemia
NCI-H226 lung = system: NCI-H226 lung
NCI-H23 lung = system: NCI-H23 lung
NCI-H460 lung = system: NCI-H460 lung
NCI-H522 lung = system: NCI-H522 lung
NCI/ADR-RES ovarian = system: NCI/ADR-RES ovarian
OVCAR-3 ovarian = system: OVCAR-3 ovarian
OVCAR-4 ovarian = system: OVCAR-4 ovarian
OVCAR-5 ovarian = system: OVCAR-5 ovarian
OVCAR-8 ovarian = system: OVCAR-8 ovarian
PC-3 prostate = system: PC-3 prostate
RPMI-8226 leukemia = system: RPMI-8226 leukemia
RXF 393 renal = system: RXF 393 renal
SF-268 CNS = system: SF-268 CNS
SF-295 CNS = system: SF-295 CNS
SF-539 CNS = system: SF-539 CNS
SK-MEL-2 melanoma = system: SK-MEL-2 melanoma
SK-MEL-28 melanoma = system: SK-MEL-28 melanoma
SK-MEL-5 melanoma = system: SK-MEL-5 melanoma
SK-OV-3 ovarian = system: SK-OV-3 ovarian
SN12C renal = system: SN12C renal
SNB-19 CNS = system: SNB-19 CNS
SNB-75 CNS = system: SNB-75 CNS
SR leukemia = system: SR leukemia
SW-620 colon = system: SW-620 colon
T-47D breast = system: T-47D breast
TK-10 renal = system: TK-10 renal
U251 CNS = system: U251 CNS
UACC-257 melanoma = system: UACC-257 melanoma
UACC-62 melanoma = system: UACC-62 melanoma
UO-31 renal = system: UO-31 renal

For `O=C(CNc1nc(-c2ccccc2)cs1)Nc1ccccc1`, the GI50 (786-0 renal) was 2.63 µM, the TGI (786-0 renal) was 5.48 µM and the GI50 (A498 renal) was 11.1 µM. The TGI (A498 renal) was 23.5 µM, the GI50 (A549 NSCLC) was 3.25 µM and the TGI (A549 NSCLC) was 13.5 µM. It also gave a GI50 (ACHN renal) of 2.6 µM, a TGI (ACHN renal) of 10.6 µM and a GI50 (BT-549 breast) of 2.25 µM. It also gave a TGI (BT-549 breast) of 4.23 µM, a GI50 (CAKI-1 renal) of 2.2 µM and a TGI (CAKI-1 renal) of 10.6 µM. For the same molecule, the GI50 (CCRF-CEM leukemia) was 1.88 µM, the TGI (CCRF-CEM leukemia) was > 100 µM and the GI50 (COLO 205 colon) was 2.16 µM. It also gave a TGI (COLO 205 colon) of 4.57 µM, a GI50 (DU-145 prostate) of 3.74 µM and a TGI (DU-145 prostate) of 13.4 µM. The GI50 (EKVX NSCLC) was 1.58 µM, the TGI (EKVX NSCLC) was 3.14 µM and the GI50 (HCC-2998 colon) was 1.77 µM. For the same molecule, the TGI (HCC-2998 colon) was 3.88 µM, the GI50 (HCT-116 colon) was 1.81 µM and the TGI (HCT-116 colon) was 5.75 µM. The GI50 (HCT-15 colon) was 1.61 µM, the TGI (HCT-15 colon) was 3.36 µM and the GI50 (HL-60(TB) leukemia) was 1.83 µM. The TGI (HL-60(TB) leukemia) was 6.67 µM, the GI50 (HOP-62 NSCLC) was 2.17 µM and the TGI (HOP-62 NSCLC) was 6.31 µM. For the same molecule, the GI50 (HOP-92 NSCLC) was 3.47 µM, the TGI (HOP-92 NSCLC) was 16.5 µM and the GI50 (HS 578T breast) was 3.04 µM. For the same molecule, the TGI (HS 578T breast) was > 100 µM, the GI50 (HT29 colon) was 2.06 µM and the TGI (HT29 colon) was 4.08 µM. For the same molecule, the GI50 (IGROV1 ovarian) was 1.5 µM, the TGI (IGROV1 ovarian) was 4.87 µM and the GI50 (K-562 leukemia) was 2.32 µM. For the same molecule, the TGI (K-562 leukemia) was > 100 µM, the GI50 (KM12 colon) was 3.87 µM and the TGI (KM12 colon) was 14.9 µM. The GI50 (LOX IMVI melanoma) was 1.21 µM, the TGI (LOX IMVI melanoma) was 2.7 µM and the GI50 (M14 melanoma) was 1.52 µM. For the same molecule, the TGI (M14 melanoma) was 3.49 µM, the GI50 (MALME-3M melanoma) was 1.54 µM and the TGI (MALME-3M melanoma) was 3.23 µM. For the same molecule, the GI50 (MCF7 breast) was 1.4 µM, the TGI (MCF7 breast) was 3.41 µM and the GI50 (MDA-MB-231 breast) was 1.93 µM. For the same molecule, the TGI (MDA-MB-231 breast) was 7.28 µM, the GI50 (MDA-MB-435) was 2.05 µM and the TGI (MDA-MB-435) was 5.32 µM. It also gave a GI50 (MDA-MB-468 breast) of 1.55 µM, a TGI (MDA-MB-468 breast) of 3.2 µM and a GI50 (MOLT-4 leukemia) of 1.83 µM. It also gave a TGI (MOLT-4 leukemia) of 7.46 µM, a GI50 (NCI-H226 lung) of 1.94 µM and a TGI (NCI-H226 lung) of 7.99 µM. It also gave a GI50 (NCI-H23 lung) of 1.48 µM, a TGI (NCI-H23 lung) of 3.15 µM and a GI50 (NCI-H460 lung) of 2.94 µM. For the same molecule, the TGI (NCI-H460 lung) was 11.8 µM, the GI50 (NCI-H522 lung) was 1.53 µM and the TGI (NCI-H522 lung) was 3.02 µM. For the same molecule, the GI50 (NCI/ADR-RES ovarian) was 2.29 µM, the TGI (NCI/ADR-RES ovarian) was 6.16 µM and the GI50 (OVCAR-3 ovarian) was 1.93 µM. The TGI (OVCAR-3 ovarian) was 4.36 µM, the GI50 (OVCAR-4 ovarian) was 4.88 µM and the TGI (OVCAR-4 ovarian) was 18.1 µM. For the same molecule, the GI50 (OVCAR-5 ovarian) was 2.95 µM, the TGI (OVCAR-5 ovarian) was 7.03 µM and the GI50 (OVCAR-8 ovarian) was 2.96 µM. For the same molecule, the TGI (OVCAR-8 ovarian) was 14.9 µM, the GI50 (PC-3 prostate) was 2.96 µM and the TGI (PC-3 prostate) was 30.3 µM. For the same molecule, the GI50 (RPMI-8226 leukemia) was 2.29 µM, the TGI (RPMI-8226 leukemia) was 80.9 µM and the GI50 (RXF 393 renal) was 1.85 µM. The TGI (RXF 393 renal) was 3.86 µM, the GI50 (SF-268 CNS) was 3.33 µM and the TGI (SF-268 CNS) was 22.9 µM. The GI50 (SF-295 CNS) was 2.48 µM, the TGI (SF-295 CNS) was 11.6 µM and the GI50 (SF-539 CNS) was 1.77 µM. It also gave a TGI (SF-539 CNS) of 3.22 µM, a GI50 (SK-MEL-2 melanoma) of 1.73 µM and a TGI (SK-MEL-2 melanoma) of 4.29 µM. For the same molecule, the GI50 (SK-MEL-28 melanoma) was 2.56 µM, the TGI (SK-MEL-28 melanoma) was 6.81 µM and the GI50 (SK-MEL-5 melanoma) was 1.62 µM. For the same molecule, the TGI (SK-MEL-5 melanoma) was 2.98 µM, the GI50 (SK-OV-3 ovarian) was 2.92 µM and the TGI (SK-OV-3 ovarian) was 10.2 µM. The GI50 (SN12C renal) was 1.54 µM, the TGI (SN12C renal) was 3.44 µM and the GI50 (SNB-19 CNS) was 1.82 µM. The TGI (SNB-19 CNS) was 4.16 µM, the GI50 (SNB-75 CNS) was 1.05 µM and the TGI (SNB-75 CNS) was 6.68 µM. The GI50 (SR leukemia) was 1.42 µM, the TGI (SR leukemia) was > 100 µM and the GI50 (SW-620 colon) was 2.46 µM. The TGI (SW-620 colon) was 6.04 µM, the GI50 (T-47D breast) was 2.57 µM and the TGI (T-47D breast) was 10.2 µM. For the same molecule, the GI50 (TK-10 renal) was 4.64 µM, the TGI (TK-10 renal) was 12.4 µM and the GI50 (U251 CNS) was 1.56 µM. It also gave a TGI (U251 CNS) of 3.34 µM, a GI50 (UACC-257 melanoma) of 2.05 µM and a TGI (UACC-257 melanoma) of 8.33 µM. It also gave a GI50 (UACC-62 melanoma) of 1.14 µM, a TGI (UACC-62 melanoma) of 2.58 µM and a GI50 (UO-31 renal) of 2.37 µM. It also gave a TGI (UO-31 renal) of 12.9 µM.
